Columns and labels:
[1] = tested on: Z-138 cell line; assay: Z-138 Proliferation Assay (Cell Titer Glo); assay type: cell-based; conditions: Homo sapiens, 120 h; Z-138 cells, 5 days incubation, top concentration 20 μM
Description: Z-138 Proliferation Assay
Z-138 suspension cells were purchased from ATCC (American Type Culture Collection, Manassas, Va.). RPMI/Glutamax medium, penicillin-streptomycin, heat inactivated fetal bovine serum were purchased from Life Technologies, Grand Island, N.Y., USA. V-bottom polypropylene 384-well plates were purchased from Greiner Bio-One, Monroe, N.C., USA. Cell culture 384-well white opaque plates were purchased from Perkin Elmer, Waltham, Mass., USA. Cell-Titer Glo® was purchased from Promega Corporation, Madison, Wis., USA. SpectraMax M5 plate reader was purchased from Molecular Devices LLC, Sunnyvale, Calif., USA.
Z-138 suspension cells were maintained in growth medium (RPMI 1640 supplemented with 10% v/v heat inactivated fetal bovine serum and cultured at 37° C. under 5% CO2. Under assay conditions, cells were incubated in assay medium (RPMI 1640 supplemented with 10% v/v heat inactivated fetal bovine serum and 100 units/mL penicillin-streptomycin) at 37° C. under 5% CO2.
For the assessment of the effect of compounds on the proliferation of the Z-138 cell line, exponentially growing cells were plated in 384-well white opaque plates at a density of 10,000 cells/ml in a final volume of 50 μl of assay medium. A compound source plate was prepared by performing triplicate nine-point 3-fold serial dilutions in DMSO, beginning at 10 mM (final top concentration of compound in the assay was 20 μM and the DMSO was 0.2%). A 100 nL aliquot from the compound stock plate was added to its respective well in the cell plate. […] After addition of compounds, assay plates were incubated for 5 days at 37° C., 5% CO2, relative humidity >90%. Cell viability was measured by quantitation of ATP present in the cell cultures, adding 35 μl of Cell Titer Glo® reagent to the cell plates. Luminescence was read in the SpectraMax M5 microplate reader. The concentration of compound inhibiting cell viability by 50% was determined using a 4-parametric fit of the normalized dose response curves.

[2] = molecular target: T1, PRMT5/MEP50 (Homo sapiens, UniProt O14744); assay: PRMT5 Biochemical Assay (PRMT5/MEP50 enzyme assay on peptide substrate, 3H-SAM Flashplate); conditions: PRMT5/MEP50 4 nM, 3H-SAM 75 nM, peptide 40 nM
T1 construct: Flag-PRMT5; made in house; host or cells: Spodoptera frugiperda (SF9) insect cells, baculovirus
T1 sequence (O14744 with tags, fused parts or gaps): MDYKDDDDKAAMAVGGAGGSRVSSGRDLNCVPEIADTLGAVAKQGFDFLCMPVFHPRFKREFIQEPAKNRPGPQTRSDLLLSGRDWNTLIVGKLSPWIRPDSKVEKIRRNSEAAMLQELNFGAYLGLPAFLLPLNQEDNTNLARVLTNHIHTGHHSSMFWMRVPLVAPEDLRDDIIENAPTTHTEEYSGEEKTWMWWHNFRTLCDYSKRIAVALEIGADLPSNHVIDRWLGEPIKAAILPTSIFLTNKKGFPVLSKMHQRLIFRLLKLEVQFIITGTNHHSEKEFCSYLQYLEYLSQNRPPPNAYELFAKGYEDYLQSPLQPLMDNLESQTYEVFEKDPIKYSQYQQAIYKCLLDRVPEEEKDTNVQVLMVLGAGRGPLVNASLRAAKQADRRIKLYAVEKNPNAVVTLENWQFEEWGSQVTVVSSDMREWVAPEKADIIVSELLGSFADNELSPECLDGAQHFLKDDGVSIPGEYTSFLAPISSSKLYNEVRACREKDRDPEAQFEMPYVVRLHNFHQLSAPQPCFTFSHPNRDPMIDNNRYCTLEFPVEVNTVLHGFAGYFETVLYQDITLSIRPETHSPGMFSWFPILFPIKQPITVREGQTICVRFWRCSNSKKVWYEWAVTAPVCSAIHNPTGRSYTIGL
T1 sequence (Q9BQA1 with tags, fused parts or gaps partner limits assumed): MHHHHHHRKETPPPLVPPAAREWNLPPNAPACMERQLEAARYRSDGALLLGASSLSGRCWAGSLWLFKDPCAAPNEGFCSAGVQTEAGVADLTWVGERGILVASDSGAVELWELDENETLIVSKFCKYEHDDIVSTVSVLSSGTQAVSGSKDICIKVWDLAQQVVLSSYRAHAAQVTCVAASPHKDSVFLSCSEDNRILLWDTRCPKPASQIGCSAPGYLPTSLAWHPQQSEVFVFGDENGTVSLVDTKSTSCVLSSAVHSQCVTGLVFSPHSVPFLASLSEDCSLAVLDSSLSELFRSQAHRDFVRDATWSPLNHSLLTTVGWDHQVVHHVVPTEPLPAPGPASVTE
Description: S-adenosylmethionine (SAM), S-adenosylhomocysteine (SAH), bicine, KCl, Tween20, dimethylsulfoxide (DMSO), bovine skin gelatin (BSG), and Tris(2-carboxyethyl)phosphine hydrochloride solution (TCEP) were purchased from Sigma-Aldrich at the highest level of purity possible. ^3H-SAM was purchase from American Radiolabeled Chemicals with a specific activity of 80 C1/mmol. 384-well streptavidin Flashplates were purchased from PerkinElmer.
Peptide representative of human histone H4 residues 1-15 was synthesized with a C-terminal linker-affinity tag motif and a C-terminal amide cap by 21st Century Biochemicals.
The amplified genes were sublconed into pENTR/D/TEV (Life Technologies) and subsequently transferred by Gateway™ attL×attR recombination to pDEST8 baculvirus expression vector (Life Technologies).
Protein over-expression was accomplished by infecting exponentially growing Spodoptera frugiperda (SF9) cell culture at 1.2×10^6 cell/ml with a 5000 fold dilution of BIIC stock. Infections were carried out at 27° C. for 72 hours, harvested by centrifugation, and stored at −80° C. for purification.
Flag-PRMT5/6His-MeP50 was eluted with 300 mM Imidazole in the same buffer.
General Procedure for PRMT5/MEP50 Enzyme Assays on Peptide Substrates.
The assays were all performed in a buffer consisting of 20 mM Bicine (pH=7.6), 1 mM TCEP, 0.005% BSG, and 0.002% Tween20, prepared on the day of use. […] DMSO (1 ul) was added to Columns 11, 12, 23, 24, rows A-H for the maximum signal control and 1 ul of SAH, a known product and inhibitor of PRMT5/MEP50, was added to columns 11, 12, 23, 24, rows I-P for the minimum signal control. A cocktail (40 ul) containing the PRMT5/MEP50 enzyme and the peptide was added by Multidrop Combi (Thermo-Fisher). The compounds were allowed to incubate with PRMT5/MEP50 for 30 min at 25 degrees Celsius, then a cocktail (10 ul) containing ^3H-SAM was added to initiate the reaction (final volume=51 ul). […] The assays were stopped by the addition of non-radioactive SAM (10 ul) to a final concentration of 600 uM, which dilutes the ^3H-SAM to a level where its incorporation into the peptide substrate is no longer detectable. 50 ul of the reaction in the 384-well polypropylene plate was then transferred to a 384-well Flashplate and the biotinylated peptides were allowed to bind to the streptavidin surface for at least 1 hour before being washed three times with 0.1% Tween20 in a Biotek ELx405 plate washer. The plates were then read in a PerkinElmer TopCount plate reader to measure the quantity of ^3H-labeled peptide bound to the Flashplate surface, measured as disintegrations per minute (dpm) or alternatively, referred to as counts per minute (cpm).
Where dpm=disintegrations per minute, cmpd=signal in assay well, and min and max are the respective minimum and maximum signal controls.
Where top and bottom are the normally allowed to float, but may be fixed at 100 or 0 respectively in a 3-parameter fit. The Hill Coefficient normally allowed to float but may also be fixed at 1 in a 3-parameter fit. Y is the % inhibition and X is the compound concentration.

[3] = tested on: symmetric di-methyl arginine in Z-138 cells; assay: Z-138 Methylation Assay (In Cell Western for symmetric di-methyl arginine); assay type: cell-based; conditions: Homo sapiens, 96 hours incubation, read-out: ICW EC50
Description: Z-138 suspension cells were purchased from ATCC (American Type Culture Collection, Manassas, Va.). RPMI/Glutamax medium, penicillin-streptomycin, heat inactivated fetal bovine serum, and D-PBS were purchased from Life Technologies, Grand Island, N.Y., USA. Odyssey blocking buffer, 800 CW goat anti-rabbit IgG (H+L) antibody, and Licor Odyssey infrared scanner were purchased from Licor Biosciences, Lincoln, Nebr., USA. Symmetric di-methyl arginine antibody was purchased from EMD Millipore, Billerica, Mass., USA. 16% Paraformaldehyde was purchased from Electron Microscopy Sciences, Hatfield, Pa., USA.
Z-138 suspension cells were maintained in growth medium (RPMI 1640 supplemented with 10% v/v heat inactivated fetal bovine serum and 100 units/mL penicillin-streptomycin) and cultured at 37° C. under 5% CO2.
Cell Treatment, in Cell Western (ICW) for Detection of Symmetric Di-Methyl Arginine and DNA Content.
Z-138 cells were seeded in assay medium at a concentration of 50,000 cells per mL to a 384-well cell culture plate with 50 μL per well. Compound (100 nL) from 384 well source plates was added directly to 384 well cell plate. Plates were incubated at 37° C., 5% CO2 for 96 hours. After four days of incubation, 40 μL of cells from incubated plates were added to poly-D-lysine coated 384 well culture plates (BD Biosciences 356697). Plates were incubated at room temperature for 30 minutes then incubated at 37° C., 5% CO2 for 5 hours. After the incubation, 40 μL per well of 8% paraformaldehyde in PBS (16% paraformaldahyde was diluted to 8% in PBS) was added to each plate and incubated for 30 minutes. Plates were transferred to a Biotek 405 plate washer and washed 5 times with 100 μL per well of wash buffer (1×PBS with 0.1% Triton X-100 (v/v)). Next 30 μL per well of Odyssey blocking buffer were added to each plate and incubated 1 hour at room temperature. Blocking buffer was removed and 20 μL per well of primary antibody was added (symmetric di-methyl arginine diluted 1:100 in Odyssey buffer with 0.1% Tween 20 (v/v)) and plates were incubated overnight (16 hours) at 4° C. Plates were washed 5 times with 100 μL per well of wash buffer. Next 20 μL per well of secondary antibody was added (1:200 800 CW goat anti-rabbit IgG (H+L) antibody, 1:1000 DRAQ5 (Biostatus limited) in Odyssey buffer with 0.1% Tween 20 (v/v)) and incubated for 1 hour at room temperature. The plates were washed 5 times with 100 μL per well wash buffer then 1 time with 100 μL per well of water. Plates were allowed to dry at room temperature then imaged on the Licor Odyssey machine which measures integrated intensity at 700 nm and 800 nm wavelengths. Both 700 and 800 channels were scanned.
First, the ratio for each well was determined by:
Each plate included fourteen control wells of DMSO only treatment (minimum inhibition) as well as fourteen control wells for maximum inhibition treated with 3 μM of a reference compound (Background wells). The average of the ratio values for each control type was calculated and used to determine the percent inhibition for each test well in the plate. Reference compound was serially diluted three-fold in DMSO for a total of nine test concentrations, beginning at 3 μM. Percent inhibition was determined and IC50 curves were generated using triplicate wells per concentration of compound.

IC50 [2] [nM]	EC50 [3] [nM]	SMILES	EC50 [1] [nM]
< 100	101 to 1000	Cn1cnc(-c2ccccc2OCC(=O)NCC(O)CN2CCc3ccccc3C2)c1 (stereo not shown) [Compound 153]	10000 to 50000
< 100	< 100	Cn1ncc2ccc(OCC(=O)NC[C@H](O)CN3CCc4ccccc4C3)cc21 [Compound 159]	1000 to 10000
–	1000 to 10000	O=C(COc1cncc(C(=O)N2CCOCC2)c1)NCC(O)CN1CCc2ccccc2C1 (stereo not shown) [Compound 161]	> 20000
< 100	101 to 1000	Cc1cn(C)c2cccc(OCC(=O)NC[C@H](O)CN3CCc4ccccc4C3)c12 [Compound 163]	1000 to 10000
–	101 to 1000	O=C(NCC(O)CN1CCc2ccccc2C1)C(O)c1ccccc1 (stereo not shown) [Compound 165]	> 20000
< 100	< 100	Nc1ncnc2c(OCC(=O)NCC(O)CN3CCc4ccccc4C3)cccc12 (stereo not shown) [Compound 168]	1000 to 10000
–	101 to 1000	O=C(COc1cncc(CN2CCOCC2)c1)NCC(O)CN1CCc2ccccc2C1 (stereo not shown) [Compound 172]	10000 to 50000
–	101 to 1000	O=C(CC1CCc2ccccc21)NC[C@H](O)CN1CCc2ccccc2C1 (stereo partly shown) [Compound 178]	1000 to 10000
–	101 to 1000	O=C(Cc1c[nH]c2ccccc12)NC[C@H](O)CN1CCc2ccccc2C1 [Compound 182]	–
–	101 to 1000	O=C(NC[C@H](O)CN1CCc2ccccc2C1)C1COc2ccccc2O1 (stereo partly shown) [Compound 183]	–
< 100	–	CN1CCN(c2cccc(OCC(=O)NC[C@@H](O)CN3CCc4ccccc4C3)c2)CC1 [Compound 190]	–

Second part, the molecule before the results:

SMILES	IC50 [2] [nM]	EC50 [3] [nM]	EC50 [1] [nM]
Cn1ncc2ccc(OCC(=O)NCC(O)CN3CCc4ccccc4C3)cc21 (stereo not shown) [Compound 23, N-(3-(3,4-dihydroisoquinolin-2(1H)-yl)-2-hydroxypropyl)-2-((1-methyl-1H-indazol-6-yl)oxy)acetamide]	–	–	1000 to 10000
CN(c1ccccc1OCC(=O)NCC(O)CN1CCc2ccccc2C1)S(C)(=O)=O (stereo not shown) [Compound 155]	< 100	< 100	1000 to 10000
Cc1nn(C)c2cccc(OCC(=O)NCC(O)CN3CCc4ccccc4C3)c12 (stereo not shown) [Compound 158]	< 100	101 to 1000	1000 to 10000
Cn1ncc2ccc(OCC(=O)NC[C@@H](O)CN3CCc4ccccc4C3)cc21 [Compound 160]	–	1000 to 10000	> 20000
CC(=O)Nc1ccncc1OCC(=O)NCC(O)CN1CCc2ccccc2C1 (stereo not shown) [Compound 162]	–	1000 to 10000	> 20000
Cc1cn(C)c2cccc(OCC(=O)NC[C@@H](O)CN3CCc4ccccc4C3)c12 [Compound 164]	< 100	< 100	101 to 1000
CN(C)c1cccc(OCC(=O)NCC(O)CN2CCc3ccccc3C2)c1S(N)(=O)=O (stereo not shown) [Compound 169]	< 100	< 100	1000 to 10000
CC(NC(=O)COc1ccccc1S(N)(=O)=O)C(O)CN1CCc2ccccc2C1 (stereo not shown) [Compound 170]	< 100	101 to 1000	10000 to 50000
O=C(Cc1ccc2c(c1)OCO2)NC[C@H](O)CN1CCc2ccccc2C1 [Compound 174]	–	101 to 1000	> 20000
O=C(CCc1nc2ccccc2[nH]1)NC[C@H](O)CN1CCc2ccccc2C1 [Compound 175, (S)-3-(1H-benzo[d]imidazol-2-yl)-N-(3-(3,4-dihydroisoquinolin-2(1H)-yl)-2-hydroxypropyl)propanamide]	< 100	< 100	101 to 1000
O=C(NC[C@H](O)CN1CCc2ccccc2C1)C1CNc2ccccc21 (stereo partly shown) [Compound 177]	–	101 to 1000	10000 to 50000
O=C(CC1Cc2ccccc2C1)NC[C@H](O)CN1CCc2ccccc2C1 [Compound 179]	–	101 to 1000	10000 to 50000
O=C(COc1cccc2cncnc12)NCC(O)CN1CCc2ccccc2C1 (stereo not shown) [Compound 181]	< 100	< 100	–
CN(C)CCN(C)S(=O)(=O)c1ccccc1OCC(=O)NC[C@@H](O)CN1CCc2ccccc2C1 [Compound 191]	< 100	–	–
